In PubChem BioAssay AID179 (DTP/NCI, 2004):
“And” between values parts separate entries of the source, which are not always exact repeats. Identical values can stand only once. The source made the active and inactive calls.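 The calls were made as follows: active = compounds giving half or more protection of infected cells from virus-caused growth loss, again on retest; inactive = the rest.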

Tested on: CEM cells HIV-1 protection, formazan growth assay
Assay: NCI AIDS Antiviral Assay
Conditions: for IC50: measured here: growth of uninfected CEM cells
Summary of the method: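 CEM (human) cells, HIV-1 infected vs uninfected, 5-point dosing, formazan growth read-out. Retest threshold 50% protection.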

SMILES	EC50	IC50	outcome
O=C(NNC(=O)c1nsc2ccccc12)c1ccc(Cl)cc1	> 8.13 µM	> 8.13 µM	
CC1(C)OC(=O)C(=Cc2ccccc2F)C(=O)O1	> 380 µM	70.8 µM	
O=C(/C=C(\O)C(=O)O)/C=C(\O)c1ccccc1Cl	389 µM	589 µM	
O=CNc1ccccc1OCCOc1ccccc1NC=O	> 200 µM	> 200 µM	
COCOc1ccc(C(=O)Oc2cccc3c2OC(C)(C)O3)c(OCOC)c1	> 200 µM	35.5 µM	
CCCCCC(/C=N/N)C(O)(C(F)(F)F)C(F)(F)F (stereo unspecified)	> 200 µM	1.48 µM	
CC1=C(C(=O)Nc2cccc(C(F)(F)F)c2)C(c2ccccc2F)C(C(=O)Nc2cccc(C(F)(F)F)c2)=C(C)N1	> 32.4 µM	18.6 µM	
CC1=CCC(=O)[C@]2(C)C(CC(=O)O)[C@]3(C)C4=C(C)C(c5ccoc5)C[C@@H]4O[C@@H]3[C@H](O)[C@@H]12 (stereo partly specified)	> 550 µM	> 550 µM	
Cc1ccc(S(=O)(=O)N2CCCN(S(=O)(=O)c3ccc(C)cc3)CCN(S(=O)(=O)c3ccc(C)cc3)CCCSCC2)cc1	> 5.5 µM	> 5.5 µM	
COC(=O)CC1C(C)(C)C(=O)C2CC3=C4CC(=O)OC(c5ccoc5)C4(C)CCC3C1(C)C2=O (stereo unspecified)	> 55 µM	> 55 µM	
CN1C(=O)Cc2ccccc21	> 200 µM	151 µM	
N#C/C(=C\c1ccc(Cl)cc1)c1ccc(C(=O)O)cc1	> 200 µM	110 µM	
CC(=O)OC(C(=O)C(O)C(C)C)C(C)C (stereo unspecified)	> 832 µM	> 832 µM	
CCOP(=O)(OCC)OC1c2[nH]ccc2-c2cc(C(=O)OC)[nH]c2C1OC (stereo unspecified)	> 200 µM	102 µM	
NC(N)=NC(N)=Nc1ccc(Sc2ccc(N=C(N)N=C(N)N)cc2)cc1	> 200 µM		
N=C1c2ccccc2C(=O)c2c(NCCNCCO)ccc(O)c21	> 7.76 µM	0.759 µM	
CC1(O)CC2C(CC1SCc1ccccc1)C2(C)C (stereo unspecified)	> 200 µM	34.7 µM and 20 µM	
Cc1cc(N(CCC#N)CCC#N)ccc1/C(N=Nc1ccc(Cl)cc1)=N\NC(=O)c1ccccc1	> 200 µM	21.4 µM	
C=C(C)C1CC2C(C)=C(OC(C)=O)C1n1c(=O)c3cc4ccccc4cc3c(=O)n12 (stereo unspecified)	> 46.8 µM	> 46.8 µM	
COC(=O)c1ccc(CO/N=C(\c2ccccc2)c2cccnc2)cc1	> 200 µM	47.9 µM	
CCCCC#COS(=O)(=O)c1ccc(C)cc1	> 251 µM	138 µM	
Cc1ccc(Oc2cc(C)ccc2P(=O)(O)O)cc1	> 200 µM	138 µM	
CC1Sc2ccccc2-c2[nH]c3ccccc3c21 (stereo unspecified)	> 200 µM	10.2 µM	

SMILES	EC50	IC50	outcome
COc1ccccc1C(=O)c1c(NCc2ccccc2)c(=O)c1=O	> 200 µM	93.3 µM	
CN1CCc2ccccc2/C(=C(/O)c2ccccc2)C1=O			inactive
COC(=O)C1=C(C(=O)OC)C23CC1C1C(C(=O)OC)=C(C(=O)OC)C12C1C=CC3C2C(=O)OC(=O)C21 (stereo unspecified)	> 14.5 µM	> 14.5 µM	
N#C/C(=C\c1ccco1)C(N)=O	> 200 µM	> 200 µM	
O=C1OCCC12CN(Cc1ccccc1)N=N2 (stereo unspecified)	> 200 µM	> 200 µM	
CCOC(=O)C(=O)C(/C(=N/N(C)C)C(=O)Nc1ccc(C)cc1C)c1nc2ccccc2[nH]c1=O (stereo unspecified)	> 380 µM	219 µM	
CC[N+](C)(CC)CCNC(=O)C(O)(c1ccccc1)c1ccccc1	> 200 µM	> 200 µM	
[N-]=[N+]=Nc1c(Br)c(=O)[nH]c(=O)n1COCCO			inactive
Cc1c(/C=C2\CC/C(=C\c3[nH]c(C(=O)OC(C)(C)C)c(C)c3C)C2=O)[nH]c(C(=O)OC(C)(C)C)c1C			inactive
COc1cc(-c2nn3c(=O)n(-c4ccc(Cl)cc4)c(=O)nc3s2)cc(OC)c1OC	> 0.813 µM	> 0.813 µM	
COc1cc2c(cc1O)CC1c3c(cc(O)c(OC)c3-2)CCN1C (stereo unspecified)	> 200 µM	69.2 µM	
Cc1cc2nc(=O)cc(CCl)n2c(=O)n1C(=O)C(O)C(O)C(O)CO (stereo unspecified)			inactive
CC(=O)c1sc2c(c1OC(=O)c1ccco1)c(=O)n(-c1ccccc1)c(=S)n2-c1ccccc1	> 200 µM	9.77 µM	
[N-]=[N+]=Nc1cc(=O)[nH]c2ccccc12	> 200 µM	> 200 µM	
COc1ccccc1C=C(C#N)C#N	> 977 µM	229 µM	
Cc1ccc(C)c(NC(=O)C(=O)Nn2c(=S)[nH]c3ccccc3c2=O)c1	> 501 µM	191 µM	
Cn1c(=O)c2nc3c(nc2n(C)c1=O)oc1ccccc13			inactive
Nc1nnc2c(n1)[nH]c1ccccc12	> 74.1 µM	> 74.1 µM	
CN(C)CCOC1(Cc2ccc(Cl)cc2Cl)CCC(C(C)(C)C)CC1 (stereo unspecified)	> 200 µM	2.14 µM and 3.72 µM	
CN(C)CCNC(=O)c1ccccc1Nc1c(Cl)cccc1Cl	> 200 µM	39.8 µM	
Cc1ccc2c(c1)nc1c3ccccc3[nH]n21	> 5.89 µM	> 5.89 µM	
Clc1ccc(-c2nnc3n2NC(c2ccccc2)S3)c(Cl)c1 (stereo unspecified)	> 85.1 µM	69.2 µM	
Cc1c2[nH]c3ccc(Br)cc3c2c(C)c2[nH]ccc(=O)c12	> 3.31 µM	> 3.31 µM	

SMILES	EC50	IC50	outcome
O=c1cc2ccccc2nn1-c1ccccc1Cl	> 263 µM	110 µM	
c1ccc(N=C2SC(c3ccccc3)(c3ccccc3)c3ccccc32)cc1	> 200 µM	> 200 µM	
O=[N+]([O-])c1ccc(NCCS(=O)(=O)O)c([N+](=O)[O-])c1	> 794 µM	> 794 µM	
OCCCNCC(O)c1ccc(OCc2ccccc2)c(OCc2ccccc2)c1 (stereo unspecified)	> 200 µM	5.13 µM	
Cc1c(CCO)c(=O)n2c([nH]c3ccccc32)c1C#N	> 107 µM	85.1 µM	
COc1cc(C(C2=C(O)c3ccccc3C(=O)C2=O)C2=C(O)c3ccccc3C(=O)C2=O)cc(Br)c1O	> 200 µM	32.4 µM	
CN(C)C(=S)Nc1nnc(Nc2ccccc2)s1			inactive
Cc1cc(Cl)cc2c1NC(=O)C2(O)CC(=O)c1ccc(Br)cc1 (stereo unspecified)	> 91.2 µM	70.8 µM	
CC(C)CC(NC(=O)C(CSc1ccc([N+](=O)[O-])cc1)Cc1ccccc1)C(=O)Nc1ccccc1 (stereo unspecified)	> 100 µM	> 100 µM	
C/C(=N/O)c1sc(-c2nc(C)c(/C(C)=N\O)s2)nc1C	> 115 µM	> 115 µM	
CCCCCC[C@@H]1CCC2C(CO)[C@@H](O)CC[C@@H]2C1 (stereo partly specified)	> 37.2 µM	28.2 µM	
CCOC(=O)C12OC(OCC)(CC1(OCC)OCC)C1(CC1)C2=O (stereo unspecified)	> 200 µM	> 200 µM	
CC(=O)OC1C(OCc2cc(=O)oc3c4c(c5c(c23)OC(C)(C)CC5)O[C@@H](C)[C@H](C)[C@@H]4O)OC(CO)C(O)C1O (stereo partly specified)	> 200 µM	43.7 µM	
C[C@]12CC[C@H](OC(=O)CCC(=O)O)C[C@H]1CC[C@@H]1[C@@H]2CC[C@]2(C)C(c3ccc(=O)oc3)CC[C@]12O (stereo partly specified)	> 0.2 µM	0.0162 µM	
Clc1cccc(Cl)c1C1SCc2nc3cc4ccccc4cc3n21 (stereo unspecified)	> 200 µM	> 200 µM	
Nc1ncnc2c1ncn2C1OC(CO)(C(F)(F)F)C(O)C1O (stereo unspecified)	> 200 µM	182 µM	
CN(C)C(CN)CC1=C(CC(CN)N(C)C)CCC1 (stereo unspecified)			inactive
Cc1ccc(NC(=O)C(=O)CC(=O)c2c(C)n([O-])c3ccccc3[n+]2=O)cc1C	> 64.6 µM	> 64.6 µM	
CCOC(=O)CSc1nnc(CSc2nc(-c3ccccc3)c(-c3ccccc3)[nH]2)n1-c1ccccc1	> 13.5 µM	> 13.5 µM	
OCc1c2c(cc3c1CC1(C3)Cc3cc4c(c(CO)c3C1)CCC4)CCC2	> 200 µM	8.13 µM	
COc1ccc2c(C)cc(N/N=C/c3ccc(C)s3)nc2c1	> 200 µM	9.12 µM	
Cn1c2ccccc2c(=O)c2c(O)cc3c(c21)CC(C1(C)CO1)O3 (stereo unspecified)	> 6.17 µM	0.209 µM	
O=C1/C(=C/c2ccccc2)CSC/C1=C\c1ccccc1	> 200 µM	2.4 µM	

SMILES	EC50	IC50	outcome
CCOC(=O)N(c1ccccc1)N(CC)C(=O)/C(C)=N/Nc1ccc([N+](=O)[O-])cc1			inactive
COc1ccc(C(=O)/C=C/c2ccc3c(c2)OCO3)c(O)c1	> 200 µM	81.3 µM	
C=C(C)COc1cc(NC(=S)OC(C)C)ccc1Cl	0.813 µM	4.79 µM	
O=C(NCc1ccccc1)c1n[nH][nH]c1=O	> 200 µM	> 200 µM	
O=C(Nc1ccccc1)C(c1ccccc1)N(Nc1ccccc1Cl)c1ccccc1Cl (stereo unspecified)	> 200 µM	33.9 µM	
CC=C=CCN(C)Cc1ccccc1	> 324 µM	> 324 µM	
CN(C)NC(=O)NC12CC3CC(CC(C3)C1)C2			inactive
CCCCCOC(=S)S	> 200 µM	> 200 µM	
O=[N+]([O-])c1ccc(Sc2c3ccccc3nc3ccccc23)nc1	> 200 µM	5.25 µM	
CCOC(=O)c1cncc(C#N)c1	> 200 µM	105 µM	
C[C@@H]1OC(=O)N2CCCC(=C3SCCCS3)C12 (stereo partly specified)			inactive
COc1cc2c(c(Oc3ccc(C)cc3)c1)CN(C)CC2	> 200 µM	75.9 µM	
CCCCCCCCCCCOC(=S)NC(C)C			inactive
CC1C(=O)OC2C=CC3(C)C(=O)OC4OC5(c6ccoc6)CC1(O)C2(C)C43O5 (stereo unspecified)	> 200 µM	> 200 µM	
O=C(Nc1nc(=S)[nH][nH]1)C(=O)C1C(=O)Nc2ccccc2S1=O (stereo unspecified)	> 372 µM	> 372 µM	
COC(=O)/C=C\C(C#N)(C#N)N=Cc1ccc(C)s1	> 2 µM	0.575 µM	
CC(C)(C=O)CC(C#N)/C(=N\NC(N)=O)C(=O)Nc1ccccc1C(N)=O (stereo unspecified)	> 676 µM	> 676 µM	
COC1=CC(=O)C2C=C3C(CO)=CCC(O)C3(C)CC2C1=O (stereo unspecified)	> 200 µM	3.8 µM	
C=CC1(O)CC(n2cc(C)c(=O)[nH]c2=O)OC1CO (stereo unspecified)	> 200 µM	> 200 µM	
S=C1NC(c2ccccc2)Nc2ccccc21 (stereo unspecified)	> 107 µM	> 107 µM	
O=C(NC1CCCC1=O)c1ccccc1 (stereo unspecified)			inactive
Nc1nnc(-c2ccccc2S)o1	> 63.1 µM	26.9 µM	
CCOC(=O)C(=O)Nc1c(C)cccc1C(C)(C)C	> 135 µM	> 135 µM	
